Consider nine compounds from ChEMBL document CHEMBL1681728, “An automated, polymer-assisted strategy for the preparation of urea and thiourea derivatives of 15-membered azalides as potential antimalarial chemotherapeutics” (Bioorg Med Chem, 2011).

Holding throughout (assay type): functional, organism-based
Assay [1] deals with Plasmodium falciparum. As to the kind of experiment: Antimalarial activity against multidrug-resistant Plasmodium falciparum TM91C235 assessed as inhibition of [3H]hypoxanthine incorporation after 96 hrs by microtiter plate scintillation counting.
Assay [2] has as its system Plasmodium falciparum. As to the kind of experiment: Antimalarial activity against chloroquine-sensitive Plasmodium falciparum D6 assessed as inhibition of [3H]hypoxanthine incorporation after 96 hrs by microtiter plate scintillation counting.
In assay [3] the test system is Plasmodium falciparum. The assay is described as follows: Antimalarial activity against chloroquine-,pyrimethamine-resistant Plasmodium falciparum W2 assessed as inhibition of [3H]hypoxanthine incorporation after 96 hrs by microtiter plate scintillation counting.

For `CC[C@H]1OC(=O)[C@H](C)[C@@H](O[C@H]2C[C@@](C)(OC)[C@@H](O)[C@H](C)O2)[C@H](C)[C@@H](O[C@@H]2O[C@H](C)C[C@H](N(C)C)[C@H]2O)[C@](C)(O)C[C@@H](C)CN(CCCNC(=O)Nc2ccc(Cl)cc2)[C@H](C)[C@@H](O)[C@]1(C)O`, the IC50 in assay [1] stood at 90.4 nM; in assay [2], 188 nM; in assay [3] it was 99.3 nM.

In the case of `CC[C@H]1OC(=O)[C@H](C)[C@@H](O[C@H]2C[C@@](C)(OC)[C@@H](O)[C@H](C)O2)[C@H](C)[C@@H](O[C@@H]2O[C@H](C)C[C@H](N(C)C)[C@H]2O)[C@](C)(O)C[C@@H](C)CN(CCCNC(=O)Nc2ccc3c(c2)CCC3)[C@H](C)[C@@H](O)[C@]1(C)O`, the IC50 in assay [1] stood at 96.2 nM; in assay [2], 266 nM; in assay [3], 73.6 nM.

In the case of `CC[C@H]1OC(=O)[C@H](C)[C@@H](O[C@H]2C[C@@](C)(OC)[C@@H](O)[C@H](C)O2)[C@H](C)[C@@H](O[C@@H]2O[C@H](C)C[C@H](N(C)C)[C@H]2O)[C@](C)(O)C[C@@H](C)CN(CCCNC(=S)Nc2ccc(/N=N/c3ccccc3)cc2)[C@H](C)[C@@H](O)[C@]1(C)O`, the IC50 in assay [1] is 96.3 nM; in assay [2], 107 nM; in assay [3] it was 47.9 nM.

In the case of `CCc1ccc(NC(=O)NCCCN2C[C@H](C)C[C@@](C)(O)[C@H](O[C@@H]3O[C@H](C)C[C@H](N(C)C)[C@H]3O)[C@@H](C)[C@H](O[C@H]3C[C@@](C)(OC)[C@@H](O)[C@H](C)O3)[C@@H](C)C(=O)O[C@H](CC)[C@@](C)(O)[C@H](O)[C@H]2C)cc1`, the IC50 in assay [1] worked out at 99.3 nM; in assay [2], 226 nM; in assay [3], 73.8 nM.

For `CC[C@H]1OC(=O)[C@H](C)[C@@H](O[C@H]2C[C@@](C)(OC)[C@@H](O)[C@H](C)O2)[C@H](C)[C@@H](O[C@@H]2O[C@H](C)C[C@H](N(C)C)[C@H]2O)[C@](C)(O)C[C@@H](C)CN(CCCNC(=S)Nc2ccc(-n3cccn3)cc2)[C@H](C)[C@@H](O)[C@]1(C)O`, the IC50 is 101 nM in assay [1], 160 nM in assay [2] and 109 nM in assay [3].

For `CC[C@H]1OC(=O)[C@H](C)[C@@H](O[C@H]2C[C@@](C)(OC)[C@@H](O)[C@H](C)O2)[C@H](C)[C@@H](O[C@@H]2O[C@H](C)C[C@H](N(C)C)[C@H]2O)[C@](C)(O)C[C@@H](C)CN(CCCNC(=S)Nc2cccc3nsnc23)[C@H](C)[C@@H](O)[C@]1(C)O`, the IC50 in assay [1] was 101 nM; in assay [2], 176 nM; in assay [3], 88.2 nM.

Regarding `CC[C@H]1OC(=O)[C@H](C)[C@@H](O[C@H]2C[C@@](C)(OC)[C@@H](O)[C@H](C)O2)[C@H](C)[C@@H](O[C@@H]2O[C@H](C)C[C@H](N(C)C)[C@H]2O)[C@](C)(O)C[C@@H](C)CN(CCCNC(=S)NCC2CC3CCC2C3)[C@H](C)[C@@H](O)[C@]1(C)O` (some centres not stated), the IC50 is 102 nM in assay [1], 249 nM in assay [2] and 46.5 nM in assay [3].

On to `CCOC(=O)c1ccc(NC(=S)NCCCN2C[C@H](C)C[C@@](C)(O)[C@H](O[C@@H]3O[C@H](C)C[C@H](N(C)C)[C@H]3O)[C@@H](C)[C@H](O[C@H]3C[C@@](C)(OC)[C@@H](O)[C@H](C)O3)[C@@H](C)C(=O)O[C@H](CC)[C@@](C)(O)[C@H](O)[C@H]2C)cc1`, for which the IC50 was found to be 107 nM in assay [1], 121 nM in assay [2] and 70.9 nM in assay [3].

Turning to `CC[C@H]1OC(=O)[C@H](C)[C@@H](O[C@H]2C[C@@](C)(OC)[C@@H](O)[C@H](C)O2)[C@H](C)[C@@H](O[C@@H]2O[C@H](C)C[C@H](N(C)C)[C@H]2O)[C@](C)(O)C[C@@H](C)CN(CCCNC(=S)Nc2ccc(Cl)cc2)[C@H](C)[C@@H](O)[C@]1(C)O`, the values for the IC50 in assay [1], in assay [2] and in assay [3] were 108 nM, 188 nM and 53.4 nM, respectively.

For orientation: IC50 means the concentration that gives 50% inhibition.
